Laboratory results: US9822099B2, “Triazole derivatives” (priority 2013, dated 2017)
Read-outs that look alike come from different tables or passages of the source. Marks after values point to notes of the source that are not given here.

How the values were obtained:
Sphaerotheca fuliginea = experiment: Example E: in vivo preventive test on Sphaerotheca fuliginea (powdery mildew on cucurbits); settings: gherkin plants, preventive spray, evaluated 15 days after inoculation
Protocol: The young plants of gherkin are treated by spraying the active ingredient prepared as described above. Control plants are treated only with an aqueous solution of acetone/Dimethyl sulfoxide/Tween®. After 24 hours, the plants are contaminated by spraying the leaves with an aqueous suspension of Sphaerotheca fuliginea spores.

Septoria tritici = experiment: Example D: in vivo preventive test on Septoria tritici (leaf spot on wheat); settings: wheat plants, preventive spray, evaluated 24 days after inoculation
Protocol: The young plants of wheat are treated by spraying the active ingredient prepared as described above. Control plants are treated only with an aqueous solution of acetone/Dimethyl sulfoxide/Tween®. After 24 hours, the plants are contaminated by spraying the leaves with an aqueous suspension of Septoria tritici spores.

[1] = method [a]: LC-MS at pH 2.7, 0.1% formic acid in water / acetonitrile gradient
[2] = method [b]: LC-MS at pH 7.8, 0.001 molar ammonium hydrogen carbonate in water / acetonitrile gradient

Row | Compound | LogP [1] | also measured
1 | Fc1cc(CC2(C3(F)CC3)CO2)c(Cl)cn1 (centres unmarked) [XII-21] | 2.80^[a] | –
2 | O=C(Cc1cccnc1)C1(Cl)CC1 [Example V-19] | 0.23^[a] | –
3 | CC(CF)(CF)C1(Cc2ccncc2Cl)CO1 (centres unmarked) [XII-18] | 2.16^[a] | –
4 | CC(CF)(CF)C1(Cc2ccnc(Cl)c2F)CO1 (centres unmarked) [XII-27] | 2.65^[a] | –
5 | CC(CF)(CF)C1(Cc2ccnc(Cl)c2)CO1 (centres unmarked) [XII-10] | 2.38^[a] | –
6 | OC(Cc1nc(Cl)ccc1Cl)(Cn1cncn1)C1(Cl)CC1 (centres unmarked) [Example I-96] | – | LogP (pH 2.7): 2.73^[a]
7 | Clc1cncc(Cl)c1CC1(C2(Cl)CC2)CO1 (centres unmarked) [XII-32] | 3.68^[a] | –
8 | OC(Cc1cncc(Cl)n1)(Cn1cncn1)C1(Cl)CC1 (centres unmarked) [Example I-9] | – | LogP (pH 2.7): 1.72^[a]; Eff. % (Sphaerotheca fuliginea; 100 ppm of active ingredient): 94%
9 | Fc1ncccc1CC1(C2(Cl)CC2)CO1 (centres unmarked) [XII-31] | 2.47^[a] | –
10 | OC(Cc1cc(Cl)ncc1F)(Cn1cncn1)c1ccc(Cl)nc1 (centres unmarked) [Example I-42] | – | LogP (pH 2.7): 1.60^[a]; Eff. % (Sphaerotheca fuliginea; 100 ppm of active ingredient): 98%
11 | CC(CF)(CF)C1(Cc2ccncc2F)CO1 (centres unmarked) [XII-8] | 1.79^[a] | –
12 | Cc1cnc(CC(O)(Cn2cncn2)C2(Cl)CC2)c(Cl)n1 (centres unmarked) [Example I-10] | – | LogP (pH 2.7): 2.05^[a]; Eff. % (Sphaerotheca fuliginea; 100 ppm of active ingredient): 75%
13 | Fc1c(CC2(C3(Cl)CC3)CO2)ccnc1Cl (centres unmarked) [XII-26] | 3.11^[a] | –
14 | OC(Cc1ccnc(Cl)c1)(Cn1cncn1)c1ccc(Cl)nc1 (centres unmarked) [Example I-38] | – | LogP (pH 2.7): 1.38^[a]; Eff. % (Sphaerotheca fuliginea; 100 ppm of active ingredient): 100%
15 | Cc1cc(C(O)(Cc2ccncc2Cl)Cn2cncn2)nn1C (racemic) [Example I-66] | – | Eff. % (Septoria tritici; 500 ppm of active ingredient): 92%; LogP (pH 2.7): 0.84^[a]; Eff. % (Sphaerotheca fuliginea; 500 ppm of active ingredient): 80%
16 | Fc1cnc(Cl)cc1CC1(C2(Cl)CC2)CO1 (centres unmarked) [XII-14] | 3.15^[a] | –
17 | Fc1cc(CC2(C3(Cl)CC3)CO2)c(Cl)cn1 (centres unmarked) [XII-20] | 3.41^[a] | –
18 | OC(Cc1cccc(Cl)c1)(Cc1ccncc1Cl)Cn1cncn1 (centres unmarked) [Example I-15] | – | Eff. % (Septoria tritici; 100 ppm of active ingredient): 94%; LogP (pH 2.7): 2.27^[a]; Eff. % (Sphaerotheca fuliginea; 100 ppm of active ingredient): 98%
19 | OC(Cc1ccccc1F)(Cc1ccnc(Cl)c1F)Cn1cncn1 (racemic) [Example I-85] | – | Eff. % (Septoria tritici; 500 ppm of active ingredient): 78%; LogP (pH 2.7): 1.73^[a]; Eff. % (Sphaerotheca fuliginea; 500 ppm of active ingredient): 89%
20 | FC1(C2(Cc3cccnc3Cl)CO2)CC1 (centres unmarked) [XII-23] | 2.18^[a] | –
21 | OC(Cc1cc(Cl)ccn1)(Cn1cncn1)C1(Cl)CC1 (centres unmarked) [Example I-47] | – | LogP (pH 2.7): 2.02^[a]
22 | Cc1cccc2cc(CC3(C4(Cl)CC4)CO3)c(Cl)nc12 (centres unmarked) [XII-39] | 4.90^[a] | –
23 | Clc1cc(CC2(C3(Cl)CC3)CO2)c(Cl)cn1 (centres unmarked) [XII-42] | 3.70^[a] | –
24 | Clc1cc(CC2(C3(Cl)CC3)CO2)ccn1 (centres unmarked) [XII-11] | 2.80^[a] | –
25 | Cc1cccc2cc(CC(=O)C3(Cl)CC3)c(Cl)nc12 [Example V-18] | 4.14^[a] | –
26 | O=C(Cc1c(Cl)ccnc1Cl)C1(Cl)CC1 [Example V-20] | 2.96^[a] | –

Row | Compound | LogP [1] | also measured
27 | CC(C)(Cl)C1(Cc2ccncc2Cl)CO1 (centres unmarked) [XII-15] | 2.57^[a] | –
28 | FC1(C2(Cc3ccnc(Cl)c3)CO2)CC1 (centres unmarked) [XII-9] | 2.27^[a] | –
29 | Clc1cc(CC2(C3(Cl)CC3)CO2)cc(Cl)n1 (centres unmarked) [XII-24] | 3.80^[a] | –
30 | Clc1ccc(CC2(C3(Cl)CC3)CO2)c(Cl)n1 (centres unmarked) [XII-30] | 3.71^[a] | –
31 | Clc1cnc(Cl)c(CC2(C3(Cl)CC3)CO2)c1 (centres unmarked) [XII-41] | 3.87^[a] | –
32 | O=C(Cc1ccc2ccccc2n1)C1(Cl)CC1 [Example V-1] | 3.39^[a] | –
33 | OC(Cc1cc(Cl)nc2ccccc12)(Cn1cncn1)C1(Cl)CC1 (centres unmarked) [Example I-92] | – | LogP (pH 2.7): 2.69^[a]
34 | ClC1(C2(Cc3ccncn3)CO2)CC1 (centres unmarked) [XII-25] | 1.44^[a] | –
35 | FC(F)(F)c1cnccc1CC1(C2(Cl)CC2)CO1 (centres unmarked) [XII-38] | 3.04^[a] | –
36 | C[Si](C)(C)OC(Cc1cnccn1)(Cn1cncn1)C1(Cl)CC1 (centres unmarked) [Example I-28] | – | LogP (pH 2.7): 2.75^[a]
37 | Fc1cnccc1CC1(C2(Cl)CC2)CO1 (centres unmarked) [XII-6] | 2.13^[a] | –
38 | OC(Cc1ncc(Cl)cc1Cl)(Cn1cncn1)C1(Cl)CC1 (centres unmarked) [Example I-97] | – | LogP (pH 2.7): 2.88^[a]
39 | CC(C)(F)C(=O)Cc1ccncc1Cl [Example V-8] | 1.97^[a] | –
40 | O=C(Cc1ccc(Cl)nc1)C1(Cl)CC1 [Example V-6] | 2.34^[a] | LogP [2]: 2.30^[b];
41 | Clc1cnccc1CC1(C2(Cl)CCCC2)CO1 (centres unmarked) [XII-16] | 3.42^[a] | –
42 | CC1(C(=O)Cc2ccncc2Cl)CCCCC1 [Example V-12] | 3.23^[a] | –
43 | OC(Cc1ccnc(Cl)c1)(Cn1cncn1)c1cccnc1Cl (centres unmarked) [Example I-34] | – | LogP (pH 2.7): 1.35^[a]; Eff. % (Sphaerotheca fuliginea; 100 ppm of active ingredient): 100%
44 | CC1(C(=O)Cc2cccnc2Cl)CC1 [Example V-9] | 1.96^[a] | –
45 | O=C(Cc1ccncc1Cl)C1(Cl)CC1 [Example V-4] | 2.13^[a] | –
46 | Cc1ccnc(CC(O)(Cn2cncn2)C2(Cl)CC2)c1 (centres unmarked) [Example I-52] | – | LogP (pH 2.7): 0.52^[a]
47 | O=C(Cc1ccc(Cl)nc1Cl)C1(Cl)CC1 [Example V-17] | 3.19^[a] | –
48 | OC(Cc1ccnc(Cl)c1)(Cc1ccccc1F)Cn1cncn1 (centres unmarked) [Example I-35] | – | LogP (pH 2.7): 2.06^[a]; Eff. % (Sphaerotheca fuliginea; 100 ppm of active ingredient): 78%
49 | Clc1ccc(CC2(C3(Cl)CC3)CO2)cn1 (centres unmarked) [XII-2] | 2.84 | LogP [2]: 2.83
50 | Clc1ccnc(Cl)c1CC1(C2(Cl)CC2)CO1 (centres unmarked) [XII-40] | 3.53^[a] | –
51 | O=C(Cc1ccncc1Cl)C1(F)CC1 [Example V-7] | 1.76^[a] | –
52 | Fc1cnc(Cl)cc1CC1(C2(F)CC2)CO1 (centres unmarked) [XII-13] | 2.57^[a] | –

Row | Compound | LogP [1] | also measured
53 | O=C(Cc1cccnc1Cl)C1(c2ccccc2)CC1 [Example V-10] | 3.00^[a] | –
54 | OC(Cc1cc(Cl)ncc1F)(Cn1cncn1)c1cccnc1Cl (centres unmarked) [Example I-43] | – | LogP (pH 2.7): 1.57^[a]; Eff. % (Sphaerotheca fuliginea; 100 ppm of active ingredient): 100%
55 | Clc1cnccc1CC1(C2(Cl)CCCCC2)CO1 (centres unmarked) [XII-17] | 3.80^[a] | –
56 | ClC1(C2(Cc3ccc4ccccc4n3)CO2)CC1 (centres unmarked) [XII-1] | 1.74^[a] | –
57 | OC(Cc1cccc(Cl)c1)(Cc1ccnc(Cl)c1)Cn1cncn1 (centres unmarked) [Example I-37] | – | LogP (pH 2.7): 2.42^[a]
58 | OC(Cc1ccncc1Cl)(Cn1cncn1)C1(c2ccccc2)CC1 (racemic) [Example I-78] | – | LogP (pH 2.7): 2.23^[a]
59 | OC(Cc1c(Cl)cncc1Cl)(Cn1cncn1)c1ccc(Cl)nc1 (racemic) [Example I-63] | – | LogP (pH 2.7): 1.89^[a]
60 | FC1(C2(Cc3c(Cl)cncc3Cl)CO2)CC1 (centres unmarked) [XII-34] | 2.93^[a] | –
61 | OC(Cc1ccnc(Cl)c1F)(Cn1cncn1)c1ccc(Cl)nc1 (racemic) [Example I-86] | – | Eff. % (Septoria tritici; 500 ppm of active ingredient): 72%; LogP (pH 2.7): 1.23^[a]
62 | OC(Cc1ccccc1F)(Cc1ccncc1F)Cn1cncn1 (centres unmarked) [Example I-20] | – | LogP (pH 2.7): 1.63^[a]
63 | O=C(Cc1cc(Cl)cnc1Cl)C1(Cl)CC1 [Example V-21] | 3.12^[a] | –
64 | CC(CF)(CF)C1(Cc2cc(Cl)ncc2F)CO1 (centres unmarked) [XII-12] | 2.69^[a] | –
65 | FC1(C2(Cc3ccncc3Cl)CO2)CC1 (centres unmarked) [XII-19] | 2.06^[a] | –
66 | Clc1ncccc1CC1(C2(Cl)CC2)CO1 (centres unmarked) [XII-5] | 2.69^[a] | –
67 | O=C(Cc1ncccc1Cl)C1(Cl)CC1 [Example V-2] | 2.40^[a] | –
68 | O=C(Cc1cc(Cl)nc(Cl)c1)C1(Cl)CC1 [Example V-5] | 3.25^[a] | –
69 | CC1(C(O)(Cc2ccnnc2Cl)Cn2cncn2)CC1 (centres unmarked) [Example I-93] | – | LogP (pH 2.7): 1.28^[a]
70 | Clc1cccnc1CC1(C2(Cl)CC2)CO1 (centres unmarked) [XII-4] | 2.69^[a] | –
71 | OC(Cc1cccc(Cl)c1)(Cc1ccncc1F)Cn1cncn1 (centres unmarked) [Example I-22] | – | Eff. % (Septoria tritici; 100 ppm of active ingredient): 88%; LogP (pH 2.7): 2.00^[a]
72 | O=C(Cc1cccnc1F)C1(Cl)CC1 [Example V-16] | 2.07^[a] | –
73 | Fc1cnccc1CC1(C2(F)CC2)CO1 (centres unmarked) [XII-7] | 1.63^[a] | –
74 | Fc1c(CC2(C3(F)CC3)CO2)ccnc1Cl (centres unmarked) [XII-28] | 2.53^[a] | –
75 | O=C(Cc1cnc2ccccc2c1)C1(Cl)CC1 [Example V-13] | 1.60^[a] | –
76 | CC(CF)(CF)C1(Cc2c(Cl)cncc2Cl)CO1 (centres unmarked) [XII-33] | 2.89^[a] | –
77 | CC1(C(=O)Cc2ccncc2Cl)CC1 [Example V-11] | 1.85^[a] | –
78 | CC(CF)(CF)C1(Cc2cc(F)ncc2Cl)CO1 (centres unmarked) [XII-22] | 2.84^[a] | –
